Reference: patent US20250287945A1, “COMPOSITIONS FOR FUNGAL CONTROL AND RELATED METHODS” (priority 2021, published 2025)
“And” between values parts separate entries of the source, which are not always exact repeats. Equal values may be shown once. “Also recorded” adds a separate entry of the source. Read-outs that look alike come from different tables or passages of the source.

What was measured:
[1] = test system: Botrytis cinarea (strain CBS 261.71); assay: Botrytis viability colorimetric assay (PrestoBlue resazurin); type: cell-based, Botrytis cinerea; conditions: for viability decrease relative to that obtained with the positive control (fenpiclonil): sentence prints Fusarium in the Botrytis assay
[2] = test system: Fusarium conidial suspension; assay: Fusarium viability colorimetric assay (PrestoBlue resazurin); type: cell-based
Method: A Fusarium conidial suspension was prepared from a 7-day culture of Fusarium biomass grown on potato dextrose agar for 7 days, and quantified by hemocytometer, as described in Example 4. Solutions of fenpiclonil (Millipore Sigma, Cat. no. 36532) and of the individual peptides were prepared in 50% (w/v) ethanol in water, and tested using a PrestoBlue™ (resazurin) viability colorimetric assay as described in Example 4.
The Fusarium conidial suspension, peptide or control treatment solution, and potato dextrose broth (Alpha Biosciences, catalogue no. P16-126) were added to each well of a 96-well plate to obtain the desired treatment concentration and 1×10^6 conidia/mL in a final volume of 150 microliters per well. The plates were covered and incubated at 30° C. for 18 hours and 200 rpm. Fifteen microliters of PrestoBlue™ Cell Viability Reagent (Thermofisher Scientific, Cat no. A13262) were added to each well, and the plate was further incubated before measuring fluorescence at 590 nm emission with excitation at 560 nm using a spectrophotometer (BioTek Synergy H1 Microplate Reader, Fischer Scientific, Cat. no. 11-120-533).

[3] = test system: conidia of Fusarium proliferatum; assay: oCelloScope live-cell imaging of fungal growth (SESA algorithm); type: cell-based
[4] = test system: Mucor circinelloides f. janssenii CBS 204.68; assay: Micro broth dilution assay in 96-well plates; type: cell-based; conditions: 3 days of incubation; 375 micromolar or 187.5 micromolar; preliminary
[5] = test system: Aspergillus fumigatus CBS 120.53; assay: Micro broth dilution assay in 96-well plates; type: cell-based; conditions: 3 days of incubation; 375 micromolar or 187.5 micromolar; preliminary
[6] = test system: Fusarium oxysporum CBS 130311; assay: Micro broth dilution assay in 96-well plates; type: cell-based; conditions: 3 days of incubation; 375 micromolar or 187.5 micromolar; preliminary
[7] = test system: Rhizomucor miehei CBS 147454; assay: Micro broth dilution assay in 96-well plates; type: cell-based; conditions: 3 days of incubation; 375 micromolar or 187.5 micromolar; preliminary
[8] = test system: Aspergillus flavus DSM 1959; assay: Micro broth dilution assay in 96-well plates; type: cell-based; conditions: 3 days of incubation; 375 micromolar or 187.5 micromolar; preliminary
[9] = test system: Cryptococcus neoformans DSM 70219; assay: Micro broth dilution assay in 96-well plates; type: cell-based; conditions: 2 days of incubation; 375 micromolar; preliminary
[10] = 375 micromolar, four replicates

Sequence | Percent Inhibition (Botrytis), Mean [1, 10] [%] | Fusarium cell viability versus untreated / 50% ethanol carrier [2] | Percent Inhibition (Fusarium), Experiment 4, Mean [2] [%] | Percent Inhibition (Fusarium), Experiment 5, Mean [2] [%] | SESA value normalized against the untreated control, mean (x) ([3]; 22 hours) | statistical comparison of normalized values with the untreated control [3] | statistical significance of antifungal activity [3] | further results
WKMGQYHQLPPLW [SEQ ID NO: 2185] | 52.30 | greatly decreased Fusarium cell viability to about the same level as did the positive control | 70.84 | 69.60 | – | – | – | SESA value normalized against the untreated control, mean (x) ([3]; 250 micromolar (nominal, filtered), 22 hours, 30% potato dextrose broth): 0.850; SESA value normalized against the untreated control, mean (x) ([3]; 375 micromolar (nominal, filtered), 22 hours, 30% potato dextrose broth): 0.439; statistical comparison of normalized values with the untreated control ([3]; nominal concentration of 375 micromolar): significantly lower than the untreated control
WCGRPGQPC (REGION 1..9: note = Botrytis spp.) [SEQ ID NO: 2183, Botrytis cinerea alpha pheromone] | −22.63 | decreasing Fusarium cell viability; also recorded: decreased Fusarium cell viability; also recorded: less pronounced | 46.67 | 42.81 | 1.540 and 1.743 | – | – | inhibition of growth / growth pattern [4]: No inhibition of growth; inhibition of growth / growth pattern [5]: No inhibition of growth; inhibition of growth / growth pattern [6]: No inhibition of growth; inhibition of growth / growth pattern [7]: No inhibition of growth; inhibition of growth / growth pattern [8]: No inhibition of growth; growth / growth pattern [9]: reduced growth
WCTWKGQPCW [SEQ ID NO: 2182] | – | decreasing Fusarium cell viability; also recorded: decreased Fusarium cell viability; also recorded: less pronounced | 47.78 | 28.39 | – | – | – | Botrytis cell viability versus untreated / 50% ethanol carrier [1]: decreased Botrytis cell viability; Percent Inhibition (Botrytis), Mean [1]: 8.56%; SESA value normalized against the untreated control, mean (x) [3]: 1.554 and 1.510
WHWLQLKPGQPMYG (listed as Saccharomyces cerevisiae) [SEQ ID NO: 2186, Saccharomyces cerevisiae alpha pheromone with C-terminal glycine] | 47.30 | greatly decreased Fusarium cell viability to about the same level as did the positive control | 64.21 | 66.45 | 1.119 and 0.742 | significantly lower than the untreated control | statistically significant antifungal activity | –
WHWLQLKPGQPMYWHWLQLKPGQPMY (listed as Saccharomyces cerevisiae) [SEQ ID NO: 2188, Saccharomyces cerevisiae alpha pheromone homodimer with no linker] | 71.82 | – | – | 71.82 | 0.330 and 0.351 | – | statistically significant antifungal activity | Botrytis cell viability versus untreated / 50% ethanol carrier ([1]; 375 micromolar): reducing Botrytis cell viability as well as did the fenpiclonil treatment; viability decrease relative to that obtained with the positive control (fenpiclonil) ([1]; 375 micromolar): roughly about two-thirds of the viability decrease obtained using the positive control
WHWLQLKPGQPMY (listed as Saccharomyces cerevisiae) [SEQ ID NO: 2184, Saccharomyces cerevisiae alpha pheromone] | 45.14 | – | 66.33 | 62.01 | – | significantly lower than the untreated control | statistically significant antifungal activity | inhibition of growth / growth pattern [4]: No inhibition of growth; Botrytis cell viability versus untreated / 50% ethanol carrier ([1]; 375 micromolar): decreased Botrytis cell viability; viability decrease relative to that obtained with the positive control (fenpiclonil) ([1]; 375 micromolar): roughly about two-thirds of the viability decrease obtained using the positive control; inhibition of growth / growth pattern [5]: No inhibition of growth; inhibition of growth / growth pattern [6]: No inhibition of growth; inhibition of growth / growth pattern [7]: No inhibition of growth; inhibition of growth / growth pattern [8]: No inhibition of growth; growth / growth pattern [9]: reduced growth
GWHWLQLKPGQPMY (listed as Saccharomyces cerevisiae) [SEQ ID NO: 2187, Saccharomyces cerevisiae alpha pheromone with N-terminal glycine] | 66.96 | – | – | 66.96 | 0.519 and 0.367 | significantly lower than the untreated control | statistically significant antifungal activity | –
